In ChEMBL document CHEMBL1153825, “From a natural product lead to the identification of potent and selective benzofuran-3-yl-(indol-3-yl)maleimides as glycogen synthase kinase 3beta inhibitors that suppress proliferation and survival of pancreatic cancer cells” (J Med Chem, 2009):

Legend:
[1] = molecular target: T1, Serine/threonine-protein kinase Chk1 (Homo sapiens, UniProt O14757); test: Inhibition of CHK1
T1 sequence (O14757 whole entry): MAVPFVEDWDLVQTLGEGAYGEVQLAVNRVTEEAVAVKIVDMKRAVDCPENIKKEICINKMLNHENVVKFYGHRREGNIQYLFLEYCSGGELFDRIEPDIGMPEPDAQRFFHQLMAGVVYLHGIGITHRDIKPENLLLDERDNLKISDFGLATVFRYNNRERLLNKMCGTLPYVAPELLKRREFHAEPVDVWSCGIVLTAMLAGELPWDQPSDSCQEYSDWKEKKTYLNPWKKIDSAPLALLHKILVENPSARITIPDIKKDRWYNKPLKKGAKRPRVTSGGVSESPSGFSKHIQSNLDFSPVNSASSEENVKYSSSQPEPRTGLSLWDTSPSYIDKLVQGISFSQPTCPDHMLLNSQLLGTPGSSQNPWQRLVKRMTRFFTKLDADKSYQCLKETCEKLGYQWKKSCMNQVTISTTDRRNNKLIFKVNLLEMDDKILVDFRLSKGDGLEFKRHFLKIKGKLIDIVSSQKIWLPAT

[2] = molecular target: T2, Inhibitor of nuclear factor kappa-B kinase subunit beta (Homo sapiens, UniProt O14920); test: Inhibition of IKK-beta up to 50 uM
T2 sequence (O14920 whole entry): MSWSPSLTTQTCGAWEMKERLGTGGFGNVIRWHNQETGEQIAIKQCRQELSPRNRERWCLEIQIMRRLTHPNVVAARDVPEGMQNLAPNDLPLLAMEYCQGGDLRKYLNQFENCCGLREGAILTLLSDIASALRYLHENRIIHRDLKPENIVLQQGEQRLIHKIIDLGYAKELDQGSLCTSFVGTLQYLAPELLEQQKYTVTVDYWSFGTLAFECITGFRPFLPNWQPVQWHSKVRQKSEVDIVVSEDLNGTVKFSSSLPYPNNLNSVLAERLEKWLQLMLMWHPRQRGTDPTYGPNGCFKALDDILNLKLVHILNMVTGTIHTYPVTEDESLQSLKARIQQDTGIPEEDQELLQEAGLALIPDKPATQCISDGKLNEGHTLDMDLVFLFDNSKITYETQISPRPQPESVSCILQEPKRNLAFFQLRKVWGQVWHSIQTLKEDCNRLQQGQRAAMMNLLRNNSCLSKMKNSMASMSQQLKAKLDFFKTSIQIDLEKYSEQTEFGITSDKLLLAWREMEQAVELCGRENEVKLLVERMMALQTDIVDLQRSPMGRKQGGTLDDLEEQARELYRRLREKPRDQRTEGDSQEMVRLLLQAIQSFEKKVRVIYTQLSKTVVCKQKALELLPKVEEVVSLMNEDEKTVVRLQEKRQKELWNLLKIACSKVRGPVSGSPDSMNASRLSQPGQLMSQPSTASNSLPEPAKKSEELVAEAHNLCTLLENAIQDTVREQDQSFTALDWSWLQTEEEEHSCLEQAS

[3] = molecular target: RAC-gamma serine/threonine-protein kinase (Homo sapiens, UniProt Q9Y243); test: Inhibition of AKT3 up to 50 uM
Sequence of RAC-gamma serine/threonine-protein kinase (Q9Y243 whole entry): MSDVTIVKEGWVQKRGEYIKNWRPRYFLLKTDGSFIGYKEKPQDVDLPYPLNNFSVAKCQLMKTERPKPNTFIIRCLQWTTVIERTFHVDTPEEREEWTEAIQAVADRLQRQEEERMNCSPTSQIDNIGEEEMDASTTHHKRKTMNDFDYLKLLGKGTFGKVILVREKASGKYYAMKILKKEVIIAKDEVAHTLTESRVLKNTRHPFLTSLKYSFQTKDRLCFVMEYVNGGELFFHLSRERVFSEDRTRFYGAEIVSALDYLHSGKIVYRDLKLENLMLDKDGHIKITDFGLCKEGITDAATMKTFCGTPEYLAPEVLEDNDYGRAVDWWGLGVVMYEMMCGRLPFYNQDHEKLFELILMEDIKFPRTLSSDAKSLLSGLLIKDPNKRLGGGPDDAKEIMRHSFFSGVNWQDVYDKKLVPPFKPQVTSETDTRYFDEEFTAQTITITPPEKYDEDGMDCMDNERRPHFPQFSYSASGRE

[4] = molecular target: RAF proto-oncogene serine/threonine-protein kinase (Homo sapiens, UniProt P04049); test: Inhibition of cRAF up to 50 uM
Sequence of RAF proto-oncogene serine/threonine-protein kinase (P04049 whole entry): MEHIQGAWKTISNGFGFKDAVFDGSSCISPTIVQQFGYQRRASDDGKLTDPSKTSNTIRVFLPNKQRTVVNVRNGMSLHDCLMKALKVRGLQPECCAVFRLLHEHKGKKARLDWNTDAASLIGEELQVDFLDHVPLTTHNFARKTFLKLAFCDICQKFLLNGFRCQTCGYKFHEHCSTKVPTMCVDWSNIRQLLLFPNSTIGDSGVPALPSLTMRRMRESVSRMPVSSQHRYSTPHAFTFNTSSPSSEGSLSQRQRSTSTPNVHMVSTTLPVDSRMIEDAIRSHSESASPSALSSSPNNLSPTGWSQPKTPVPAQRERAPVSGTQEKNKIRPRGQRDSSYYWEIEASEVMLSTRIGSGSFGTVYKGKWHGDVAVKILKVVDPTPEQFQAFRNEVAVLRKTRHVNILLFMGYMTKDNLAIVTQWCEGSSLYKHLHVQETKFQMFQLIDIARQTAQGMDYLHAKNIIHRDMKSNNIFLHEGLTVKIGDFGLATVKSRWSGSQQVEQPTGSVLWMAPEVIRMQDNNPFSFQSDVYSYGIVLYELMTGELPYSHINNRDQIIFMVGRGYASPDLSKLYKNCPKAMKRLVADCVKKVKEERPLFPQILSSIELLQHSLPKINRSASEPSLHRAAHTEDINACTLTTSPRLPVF

[5] = molecular target: T3, Inhibitor of nuclear factor kappa-B kinase subunit alpha (Homo sapiens, UniProt O15111)
T3 sequence (O15111 whole entry): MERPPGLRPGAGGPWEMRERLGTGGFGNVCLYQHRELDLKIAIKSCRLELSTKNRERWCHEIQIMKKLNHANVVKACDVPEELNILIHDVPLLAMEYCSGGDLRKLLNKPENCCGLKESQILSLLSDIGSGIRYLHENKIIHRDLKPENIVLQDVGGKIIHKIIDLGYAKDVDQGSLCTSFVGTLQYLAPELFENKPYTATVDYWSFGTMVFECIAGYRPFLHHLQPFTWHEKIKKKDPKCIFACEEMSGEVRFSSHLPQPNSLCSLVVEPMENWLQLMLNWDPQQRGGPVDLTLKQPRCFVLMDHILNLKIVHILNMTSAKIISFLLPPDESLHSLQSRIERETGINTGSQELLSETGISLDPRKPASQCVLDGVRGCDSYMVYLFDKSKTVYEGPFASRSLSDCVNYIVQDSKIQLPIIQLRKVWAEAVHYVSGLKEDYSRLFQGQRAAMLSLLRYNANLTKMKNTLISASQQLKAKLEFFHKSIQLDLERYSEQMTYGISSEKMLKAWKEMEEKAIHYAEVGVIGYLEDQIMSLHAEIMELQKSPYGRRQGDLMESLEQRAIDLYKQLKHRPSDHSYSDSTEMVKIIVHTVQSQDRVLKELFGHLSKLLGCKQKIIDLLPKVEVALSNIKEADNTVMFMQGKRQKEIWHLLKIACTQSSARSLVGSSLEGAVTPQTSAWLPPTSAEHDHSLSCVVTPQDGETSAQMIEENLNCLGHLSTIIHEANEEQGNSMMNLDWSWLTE

[6] = molecular target: Mitogen-activated protein kinase 3 (Homo sapiens, UniProt P27361); test: Inhibition of ERK1 up to 50 uM
Sequence of Mitogen-activated protein kinase 3 (P27361 whole entry): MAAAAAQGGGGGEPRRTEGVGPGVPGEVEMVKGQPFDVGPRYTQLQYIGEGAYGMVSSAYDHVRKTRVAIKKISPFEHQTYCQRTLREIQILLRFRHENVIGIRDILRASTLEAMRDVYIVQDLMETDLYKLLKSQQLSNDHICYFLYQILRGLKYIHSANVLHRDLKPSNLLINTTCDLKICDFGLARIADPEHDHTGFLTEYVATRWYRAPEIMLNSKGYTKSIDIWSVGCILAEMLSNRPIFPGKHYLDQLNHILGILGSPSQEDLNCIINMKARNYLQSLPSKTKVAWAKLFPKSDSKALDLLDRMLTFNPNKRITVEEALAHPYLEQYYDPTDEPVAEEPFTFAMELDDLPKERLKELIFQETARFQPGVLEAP

[7] = molecular target: T4, Cyclin-dependent kinase 2 (Homo sapiens, UniProt P24941)
[8] = molecular target: T4, Cyclin-dependent kinase 2; remark: listed apart in the source
[9] = molecular target: Cyclin-dependent kinase 1/cyclin B1 (Homo sapiens, UniProt P06493); test: Inhibition of CDK1/Cyclin B; format: protein-complex assay
Sequence of Cyclin-dependent kinase 1/cyclin B1 (P06493 whole entry): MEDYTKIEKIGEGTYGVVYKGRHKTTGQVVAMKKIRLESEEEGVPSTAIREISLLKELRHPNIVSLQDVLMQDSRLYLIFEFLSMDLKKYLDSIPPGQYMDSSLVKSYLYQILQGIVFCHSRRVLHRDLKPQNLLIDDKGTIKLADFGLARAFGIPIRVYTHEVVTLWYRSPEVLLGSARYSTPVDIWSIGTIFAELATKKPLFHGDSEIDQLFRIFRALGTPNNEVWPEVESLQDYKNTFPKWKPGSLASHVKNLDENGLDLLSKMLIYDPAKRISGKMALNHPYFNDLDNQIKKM
Sequence of Cyclin-dependent kinase 1/cyclin B1 (P14635 whole entry, further chain): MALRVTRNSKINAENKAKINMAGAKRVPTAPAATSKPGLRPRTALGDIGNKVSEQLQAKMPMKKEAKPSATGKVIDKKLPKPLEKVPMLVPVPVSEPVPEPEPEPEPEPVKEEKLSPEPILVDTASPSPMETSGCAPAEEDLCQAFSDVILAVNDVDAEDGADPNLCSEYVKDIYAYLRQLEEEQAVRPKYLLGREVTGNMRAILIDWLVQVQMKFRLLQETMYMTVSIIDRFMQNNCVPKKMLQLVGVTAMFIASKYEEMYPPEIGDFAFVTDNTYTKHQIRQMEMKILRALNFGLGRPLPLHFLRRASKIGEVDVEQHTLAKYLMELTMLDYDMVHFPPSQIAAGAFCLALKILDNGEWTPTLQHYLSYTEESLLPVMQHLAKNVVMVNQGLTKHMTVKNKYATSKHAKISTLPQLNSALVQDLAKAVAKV

MIA PaCa-2 = test: Growth inhibition of human MIAPaCa2 cells after 72 hrs by MTS assay; format: functional, cell-based; details: MIA PaCa-2, 72 h
HuP-T3 = test: Growth inhibition of human HUPT3 cells after 72 hrs by MTS assay; format: functional, cell-based; details: HuP-T3, 72 h
BXPC-3 = test: Growth inhibition of human BxPC3 cells after 72 hrs by MTS assay; format: functional, cell-based; details: BXPC-3, 72 h
[10] = molecular target: Glycogen synthase kinase-3 beta (Homo sapiens, UniProt P49841); test: Inhibition of human GSK3-beta by scintillation counting
Sequence of Glycogen synthase kinase-3 beta (P49841 whole entry): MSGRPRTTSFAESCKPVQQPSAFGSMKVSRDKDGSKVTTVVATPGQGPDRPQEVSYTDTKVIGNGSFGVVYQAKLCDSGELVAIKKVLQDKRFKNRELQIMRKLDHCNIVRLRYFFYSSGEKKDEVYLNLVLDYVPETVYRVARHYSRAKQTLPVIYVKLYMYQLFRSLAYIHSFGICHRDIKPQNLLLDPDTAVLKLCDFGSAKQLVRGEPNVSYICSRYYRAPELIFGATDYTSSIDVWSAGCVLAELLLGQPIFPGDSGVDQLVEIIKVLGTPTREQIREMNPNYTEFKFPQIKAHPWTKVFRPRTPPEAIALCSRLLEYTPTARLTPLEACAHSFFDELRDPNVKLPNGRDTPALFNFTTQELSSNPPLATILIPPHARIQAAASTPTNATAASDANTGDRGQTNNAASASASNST

Structure (SMILES): COc1cccc2c(C3=C(c4cn(C)c5cc(I)c(F)cc45)C(=O)NC3=O)coc12
- IC50 [1]: > 50 µM
- IC50 [2]: Not Active
- IC50 [3]: Not Active
- IC50 [4]: Not Active
- IC50 [5]: > 50 µM
- IC50 [6]: Not Active
- IC50 [7]: > 50 µM
- IC50 [8]: > 50 µM
- IC50 [9]: > 50 µM

Structure (SMILES): Cn1cc(C2=C(c3coc4ccc(F)cc34)C(=O)NC2=O)c2cc(C#CC3CC3)ccc21
- IC50 (MIA PaCa-2): 34 µM
- IC50 (HuP-T3): > 50 µM
- IC50 (BXPC-3): > 50 µM

Structure (SMILES): COCc1cccc2c(C3=C(c4coc5ccccc45)C(=O)NC3=O)cn(C)c12
- IC50 (MIA PaCa-2): > 50 µM
- IC50 (BXPC-3): > 50 µM

Structure (SMILES): COc1ccc(CNC(=O)Nc2ncc([N+](=O)[O-])s2)cc1
- IC50 (MIA PaCa-2): 29 µM
- IC50 (HuP-T3): 22 µM
- IC50 (BXPC-3): 14 µM

Structure (SMILES): Cn1cc(C2=C(c3coc4ccc(F)cc34)C(=O)NC2=O)c2cc(Cl)ccc21
- IC50 [10]: 0.042 µM

Structure (SMILES): Cn1cc(C2=C(c3coc4cc(OCC5CC5)ccc34)C(=O)NC2=O)c2cc(F)c(Cl)cc21
- IC50 [10]: 1.29 µM

Structure (SMILES): Cn1cc(C2=C(c3coc4cc(CO)ccc34)C(=O)NC2=O)c2cc(Br)ccc21
- IC50 [10]: 0.00051 µM

Structure (SMILES): Cn1cc(C2=C(c3coc4ccccc34)C(=O)NC2=O)c2cc(F)c(Cl)cc21
- IC50 (MIA PaCa-2): 3 µM
- IC50 (HuP-T3): 2 µM
- IC50 (BXPC-3): 2 µM

Structure (SMILES): Cn1cc(C2=C(c3coc4cc(OCC5CCC5)ccc34)C(=O)NC2=O)c2cc(F)c(Cl)cc21
- IC50 [10]: 4.09 µM

Structure (SMILES): Cn1cc(C2=C(c3ccc(Cl)cc3Cl)C(=O)NC2=O)c2ccccc21 [SB-216763]
- IC50 (MIA PaCa-2): 25 µM

Structure (SMILES): Cn1cc(C2=C(c3coc4ccccc34)C(=O)NC2=O)c2cc(I)ccc21
- IC50 [10]: 0.0345 µM
- IC50 (HuP-T3): > 50 µM

Structure (SMILES): COc1cccc2c(C3=C(c4cn(C)c5cc(C(F)(F)F)ccc45)C(=O)NC3=O)coc12
- IC50 (MIA PaCa-2): 8 µM
- IC50 (HuP-T3): 6 µM
- IC50 (BXPC-3): 6 µM

Structure (SMILES): COc1cc2c(C3=C(c4coc5ccccc45)C(=O)NC3=O)cn(C)c2cc1Cl
- IC50 (MIA PaCa-2): > 50 µM
- IC50 (HuP-T3): > 50 µM
- IC50 (BXPC-3): > 50 µM

Structure (SMILES): COc1ccc2c(C3=C(c4cn(C)c5cc(Cl)c(F)cc45)C(=O)NC3=O)coc2c1
- IC50 [10]: 0.87 µM

Structure (SMILES): Cn1cc(C2=C(c3coc4ccccc34)C(=O)NC2=O)c2cc(Br)ccc21
- IC50 (MIA PaCa-2): 30 µM
- IC50 (HuP-T3): 43 µM

Structure (SMILES): Cn1cc(C2=C(c3coc4cc(F)c(F)cc34)C(=O)NC2=O)c2ccc3ccccc3c21
- IC50 (MIA PaCa-2): 17 µM
- IC50 (HuP-T3): 6 µM
- IC50 (BXPC-3): 7 µM

Structure (SMILES): COc1cccc2c(C3=C(c4cn(C)c5ccc(Br)cc45)C(=O)NC3=O)coc12
- IC50 [10]: 0.0075 µM
- IC50 [8]: 1.16 µM
